# Assay results: patent US6780414B2 (priority 1998, dated 2004)
# Where two headings read alike, the source gives them in different places.
# What was measured:
# [1] = system: BS103; conditions: T84 monolayers, mean ± SEM
# [2] = system: S. flexneri-induced PMN transepithelial migration; experiment: PMN transepithelial migration assay across T84 cell monolayers
# [3] = biological target: T1, Shiga toxin (Shigella dysenteriae, UniProt Q7BQ98+Q9FBI2); format: cell-based, Shigella dysenteriae 1
# [4] = system: heat stable toxin (STa); experiment: Ussing chamber assay, effect of cadaverine on heat stable toxin (STa); format: cell-based, enterotoxigenic Escherichia coli
# [5] = system: cytolethal distending toxin; experiment: Ussing chamber assay, effect of cadaverine on cytolethal distending toxin; format: cell-based, Campylobacter jejuni
# [6] = biological target: cholera toxin (Vibrio cholerae serotype O1, UniProt P01555+P01556); format: cell-based
# [7] = system: ShET-1 and ShET-2; format: cell-based, Shigella flexneri 2a
# [8] = system: stable toxin (YST-11); experiment: Ussing chamber assay, effect of cadaverine on YST-11; format: cell-based, Yersinia enterocolitica; conditions: toxin mucosal side; cadaverine (400 μM) both sides
# [9] = system: Tsh-associated toxin; experiment: Ussing chamber assay, effect of cadaverine on Tsh-associated toxin; format: cell-based, avian pathogenic Escherichia coli; conditions: toxin mucosal side; cadaverine (400 μM) both sides
# [10] = system: ShET-1 and ShET-2; experiment: Fluid accumulation in ileal loops, effect of cadaverine; format: in vivo, Shigella flexneri 2a; conditions: cadaverine 400 μM unless otherwise indicated
# [11] = biological target: T1, Shiga toxin; conditions: cadaverine 400 μM unless otherwise indicated
# [12] = biological target: stable toxin (YST-I) (Yersinia enterocolitica, UniProt P07593); experiment: Ussing chamber assay, effect of cadaverine on YST-I; format: cell-based
# [13] = system: S. flexneri 2a strain 2457T; format: cell-based, Shigella flexneri 2a; conditions: 2457T + 1 mM supplement present only during the two hour invasion period
# [14] = system: representative virulence genes; format: cell-based, S. flexneri 2a
# [15] = system: spa47::lacZ; format: cell-based, S. flexneri 2a
# [16] = system: mxiA::lacZ; format: cell-based, S. flexneri 2a
# [17] = system: ipaB::lacZ; format: cell-based, S. flexneri 2a
# [18] = cadaverine 400 μM unless otherwise indicated
# [19] = toxin mucosal side, cadaverine (400 μM) both sides
# T1 sequence (Q9FBI2 23-315 limits assumed): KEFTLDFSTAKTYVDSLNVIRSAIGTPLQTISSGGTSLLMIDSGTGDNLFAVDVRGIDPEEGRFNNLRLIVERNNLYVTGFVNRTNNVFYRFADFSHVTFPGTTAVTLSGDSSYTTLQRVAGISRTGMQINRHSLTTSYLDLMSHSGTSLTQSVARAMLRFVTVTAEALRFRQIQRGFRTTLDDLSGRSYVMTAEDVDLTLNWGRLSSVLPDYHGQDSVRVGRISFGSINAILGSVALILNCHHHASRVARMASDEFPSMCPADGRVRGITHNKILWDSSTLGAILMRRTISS
# T1 sequence (Q7BQ98 21-89 limits assumed): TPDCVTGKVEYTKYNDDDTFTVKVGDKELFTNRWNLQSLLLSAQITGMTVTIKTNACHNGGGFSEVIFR
# cholera toxin, sequence (P01555 19-258 limits assumed): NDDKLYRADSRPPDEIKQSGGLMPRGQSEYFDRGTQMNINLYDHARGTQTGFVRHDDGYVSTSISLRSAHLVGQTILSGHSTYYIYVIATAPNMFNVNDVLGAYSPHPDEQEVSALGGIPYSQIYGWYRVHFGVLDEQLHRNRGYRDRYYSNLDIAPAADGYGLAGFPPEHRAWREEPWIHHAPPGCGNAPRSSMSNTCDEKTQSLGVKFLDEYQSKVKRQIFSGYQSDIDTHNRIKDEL
# cholera toxin, sequence (P01556 22-124 limits assumed): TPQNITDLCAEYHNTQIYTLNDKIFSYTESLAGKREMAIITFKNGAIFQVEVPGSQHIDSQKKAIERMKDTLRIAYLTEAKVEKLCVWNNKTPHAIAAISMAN
compound,measurement,setting,value
"NCCCCCN [cadaverine, 1,5-diaminopentane]",% Association BS103,[1]; 100 μM cadaverine,4.37 ± 1.64%
same,% Internalization BS103,[1]; 100 μM cadaverine,0.08 ± 0.02%
same,% Association BS103,[1]; 300 μM cadaverine,3.14 ± 0.75%
same,% Internalization BS103,[1]; 300 μM cadaverine,0.03 ± 0.01%
same,% Association BS103,[1]; 500 μM cadaverine,2.11 ± 0.90%
same,% Internalization BS103,[1]; 500 μM cadaverine,0.01 ± 0.01%
same,ability of S. flexneri to promote PMN transepithelial migration,"[2]; 2457T added basolaterally together with cadaverine 100, 300 and 500 μM (FIG. 3)",dose dependent decrease
same,down regulation of S. flexneri-induced PMN transepithelial migration,"[2]; T84 infected with 2457T 1 hr, then apical cadaverine 300 μM 30 min (FIG. 5)",60%
same,"Effect of Cadaverine, enterotoxicity in Ussing chambers",[3]; [18],blocked;
same,ΔIsc + cadaverine,[3]; [19],−13.6
same,"Effect of Cadaverine, enterotoxicity in Ussing chambers",[4]; [18],none
same,ΔIsc + cadaverine,[4]; [19],75.9
same,"Effect of Cadaverine, enterotoxicity in Ussing chambers",[5]; [18],completely
same,ΔIsc + cadaverine,[5]; [19],−18.7
same,"Effect of Cadaverine, enterotoxicity in Ussing chambers",[6]; [18],none
same,ΔIsc + cadaverine,[6]; [19],70.9
same,"Effect of Cadaverine, enterotoxicity in Ussing chambers",[7],blocked
same,ΔIsc + cadaverine,[7],2.7
same,ΔIsc as % of the value in tissues not pretreated,[7],40%
same,ΔIsc + cadaverine,[8],32.4
same,ΔIsc + cadaverine,[9],23.3
same,"Effect of Cadaverine, fluid accumulation in ileal loops",[10],both completely
same,"Effect of Cadaverine, cytotoxicity in Vero cells",[11],none
same,"Effect of Cadaverine, enterotoxicity in Ussing chambers",[12]; [18],completely
same,ΔIsc + cadaverine,[12]; [19],−11.0
O=C(O)c1ccc[n+]([C@@H]2O[C@H](COP(=O)(O)O)[C@@H](O)[C@H]2O)c1 [nicotinic acid mononucleotide],% FIREWORKS,[13],17%
same,% INVASION,[13],82%
O=C(O)c1cccnc1 [nicotinic acid],% FIREWORKS,[13],17%
same,% INVASION,[13],85%
O=C(O)c1cccnc1C(=O)O [quinolinate],% FIREWORKS,[13],0%
same,% INVASION,[13],0.5%
same,reduction of virulence gene expression,[14],about 50%
same,Miller Units of activity,[15],312.3 ± 6.5 Miller Units
same,Miller Units of activity,[16],196.5 ± 2.0 Miller Units
same,Miller Units of activity,[17],140.5 ± 2.9 Miller Units
